“And” between values parts separate entries of the source, which are not always exact repeats. Equal values may be shown once. Read-outs that look alike come from different tables or passages of the source. Where only a bound is given, the exact number is not on record here.

One series concerns the target P1 transporter. To be noted: T. brucei P1; ref [16],[17]; cited from earlier work.
Series [1] addresses P2/TbAT1 aminopurine transporter. Conditions: T. brucei P2; ref [16],[17]; cited from earlier work.
The target of series [2] is T1, TcrNT2 (Trypanosoma cruzi, UniProt Q4DHG0). To be noted: cited from earlier work; for Ki: earlier characterization, read-out: Ki on thymidine transport by TcrNT2.
A further series deals with NT1 transport activity. Also on record: method as in PMID 28453984. To be noted: NT1 transport activity in L. mexicana; ref [36]; cited from earlier work.
The test system of series [3] is L. mexicana Cas9 promastigotes. Set-up: method as in de Almeida Fiuza et al. [41]. To be noted: starred values, ref de Almeida Fiuza et al. [41], read-out: EC50 (µM) AVG ± SEM, Cas9; cited from earlier work.
Series [4] deals with L. mexicana Cas9^ΔNT1 promastigotes. Also on record: method as in de Almeida Fiuza et al. [41]. To be noted: starred values, ref de Almeida Fiuza et al. [41], cited from earlier work; for EC50: L. mexicana Cas9^ΔNT1 promastigotes, read-out: EC50 (µM) AVG ± SEM, L. mexicana Cas9^ΔNT1.
Series [5] deals with L. mexicana Cas9^ΔNT1+TcrNT2 promastigotes. Also on record: method as in de Almeida Fiuza et al. [41]. Conditions: L. mexicana Cas9^ΔNT1+TcrNT2 promastigotes; starred values; ref de Almeida Fiuza et al. [41]; read-out: EC50 (µM) AVG ± SEM, L. mexicana Cas9^ΔNT1+TcrNT2; cited from earlier work.
In series [6] the test system is intracellular T. cruzi amastigotes. To be noted: ref [16], cited from earlier work.
Series [7] concerns L. mexicana Cas9 promastigotes. Kind of series: Alamar blue drug sensitivity assay, L. mexicana Cas9 promastigotes. It counts as cell-based, Leishmania mexicana. Conditions: Leishmania mexicana, 120 h, 72 h + 48 h resazurin, at least 3 independent determinations, read-out: EC50 (µM) AVG ± SEM, Cas9. From the text: We used L. mexicana promastigotes of the Cas9 strain developed by Beneke at al. to generate the ΔNT1 strain, and from there the Cas9^ΔNT1+TcrNT2 (see below); The original Cas9 strain was generously donated by Prof. Eva Gluenz (University of Bern, Switzerland). All strains in standard HOMEM (GIBCO, Life Technologies, Paisley, UK) supplemented with 10% heat-inactivated fetal bovine serum (FBS; PAA Laboratories, Linz, Austria) and 1% of a penicillin–streptomycin solution (10,000 U mL^−1 each; Life Technologies) at 25 °C, as described.
The Alamar blue assay (resazurin sodium salt) was used to determine the drug sensitivity of the L. mexicana promastigotes in vitro. The assay is based on the reduction of resazurin sodium salt (blue and non-fluorescent) to resorufin (pink color and fluorescent) by live cells. HOMEM medium with 10% FBS (100 μL) was added to all wells of a white 96-well plate apart from the first well. 200 μL of a known concentration of test compounds was diluted in HOMEM medium and placed in the first well. Compounds were tested in one plate and every compound was diluted over two rows (23 concentrations), leaving the last well of every dilution as a negative control having 100 μL HOMEM medium. Next, 100 μL of L. mexicana culture at a density of 2 × 10^6 cells mL^−1 was added into every well in the plate and incubated for 72 h at a temperature of 25 °C after which resazurin sodium salt (Sigma) (20 μL of a solution of 12.5 mg in 100 mL PBS) was added and the plate was incubated under the same conditions for a further 48 h. Fluorescence was measured in a FLUOstar OPTIMA plate reader (BMG Labtech, Germany), at a wavelength of 544 nm for excitation and 620 nm for emission. The EC50 values and fluorescence data were determined and plotted by the GraphPad Prism 8 Software using an equation for a sigmoid curve with variable slope. Pentamidine was used as positive control and every experiment was performed 3–4 times independently.

In series [8] the target is T1, TcrNT2. Kind of series: Transport of [^3H]-thymidine by TcrNT2 expressed in L. mexicana Cas9^ΔNT1 (Km, inhibition). Conditions: for ΔG° (Gibbs free energy of interaction): calculated from Km or Ki at 25 °C. The format is cell-based. The procedure: (§1) These values can be used to calculate the Gibbs free energy of interaction ΔG°, but these experiments cannot distinguish between the test compound being transported or merely binding to the transporter and inhibiting the transit of the [^3H]-thymidine.
Transport assays were conducted with radiolabeled nucleosides [methyl-^3H]-thymidine (20 Ci/mmol; PerkinElmer (Waltham, MA, USA)) and [2,8-^3H]-adenosine (40 Ci/mmol; American Radiolabeled Chemicals (ARC, St-Louis, MO, USA)). Cells were harvested from mid-log phase cultures by centrifugation and washed into an assay buffer (AB) as described, at a density of 1 × 10^8 cells mL^−1. Transport assays were then performed exactly as described previously, using an oil-stop protocol. Briefly, 100 µL of cell suspension (10^7 cells) was mixed with 100 µL of [^3H]-substrate at 2 × final concentration and incubated for a pre-set time prior to the addition of 800 µL of ice-cold AB containing a saturating concentration of unlabeled permeant (usually 1 or 2.5 mM) and immediate centrifugation through an oil layer to separate cells from extracellular radiolabel. The 100 µL of [^3H]-substrate could also contain unlabeled substrate or an inhibitor at 2 × concentration, as appropriate. Next, the microfuge tubes were flash frozen in liquid nitrogen; the tips with the cell pellets cut off and collected in scintillation tubes. Cells were solubilized by incubation in 2% SDS under gentle shaking on a rocking platform prior to the addition of scintillation fluid (Scintilogic U, Lablogic, Sheffield, UK). The tubes stored in the dark overnight before counting in a 300SL Hidex Scintillation Counter (Lablogic).
Michaelis-Menten constants (Km) were calculated by plotting transport rates of [^3H]-substrate against the concentration, using the Michaelis-Menten equation V0 = Vmax([substrate]/([substrate] + Km)) and non-linear regression in GraphPad Prism 8. Inhibition constants (Ki) were calculated using the Cheng-Prusoff equation: Ki = IC50/(1 + (L/Km)), where L represents the radiolabel concentration. The IC50 was obtained by a non-linear regression of the inhibition curve of transport rate versus inhibitor concentration, using an equation for a sigmoid curve with variable slope (GraphPad Prism 8). The Gibbs free energy ΔG° was obtained using the equation ΔG° = −RTln(Ki), in which R is the gas constant and T is the absolute temperature. As discussed previously, these equations apply to competitive rather than non-competitive inhibition. Given that only close analogues of the substrate were used as potential inhibitors and that Hill slopes were consistently close to −1, it is very likely that inhibition was indeed competitive.

The subject of series [9] is L. mexicana Cas9^ΔNT1 promastigotes. Kind of series: Transport of [^3H]-thymidine by L. mexicana Cas9^ΔNT1 promastigotes. The format is cell-based, Leishmania mexicana. Conditions: 0.05 µM [^3H]-thymidine, Cas9^ΔNT1 cells, over 180 s. The procedure: It is well documented that the NT1 transport activity is responsible for the uptake of adenosine and of pyrimidine nucleosides in Leishmania spp.. […] We thus assessed the uptake of these two nucleosides in Cas9^ΔNT1. […] In contrast, the transport of 0.1 µM of [^3H]-adenosine by L. mexicana Cas9^ΔNT1 promastigotes was virtually abolished and became statistically identical to the uptake in the presence of 1 mM unlabeled adenosine (p > 0.05).
Figure 1 [^3H]-Adenosine and [^3H]-Thymidine transport by L. mexicana Cas9 and L. mexicana Cas9^ΔNT1. (A). Transport of 0.1 µM of [^3H]-adenosine by L. mexicana Cas9 and L. mexicana Cas9^ΔNT1 was measured over 20 s in the presence or absence of 1 mM unlabeled adenosine. (B). Transport of 0.05 μM of [^3H]-thymidine by L. mexicana Cas9 and L. mexicana Cas9^ΔNT1 was measured over 180 s in the presence or absence of 1 mM unlabeled thymidine, respectively. Symbols represent the average of triplicate determinations in a single representative experiment and error bars represent ± SEM.
Transport assays were conducted with radiolabeled nucleosides [methyl-^3H]-thymidine (20 Ci/mmol; PerkinElmer (Waltham, MA, USA)) and [2,8-^3H]-adenosine (40 Ci/mmol; American Radiolabeled Chemicals (ARC, St-Louis, MO, USA)). Cells were harvested from mid-log phase cultures by centrifugation and washed into an assay buffer (AB) as described, at a density of 1 × 10^8 cells mL^−1. […]

Substrate in series [10]: Cc1cn([C@H]2C[C@H](O)[C@@H](CO)O2)c(=O)[nH]c1=O
Kind of series: Transport of [^3H]-thymidine by TcrNT2 expressed in L. mexicana Cas9^ΔNT1 (Km, inhibition). The format is cell-based, Trypanosoma cruzi. To be noted: other: TcrNT2 in L. mexicana Cas9^ΔNT1, […] [^3H]-thymidine, 5 min, n = 3. The procedure:
as §1
Transport assays were conducted with radiolabeled nucleosides [methyl-^3H]-thymidine (20 Ci/mmol; PerkinElmer (Waltham, MA, USA)) and [2,8-^3H]-adenosine (40 Ci/mmol; American Radiolabeled Chemicals (ARC, St-Louis, MO, USA)). Cells were harvested from mid-log phase cultures by centrifugation and washed into an assay buffer (AB) as described, at a density of 1 × 10^8 cells mL^−1. Transport assays were then performed exactly as described previously, using an oil-stop protocol. […]
Michaelis-Menten constants (Km) were calculated by plotting transport rates of [^3H]-substrate against the concentration, using the Michaelis-Menten equation V0 = Vmax([substrate]/([substrate] + Km)) and non-linear regression in GraphPad Prism 8. Inhibition constants (Ki) were calculated using the Cheng-Prusoff equation: Ki = IC50/(1 + (L/Km)), where L represents the radiolabel concentration. […]

Where [11] appears, read: TcrNT2 expressed in T. brucei, ref Campagnaro et al. [30].

As to `Nc1ncnc2c1c(-c1ccccn1)cn2[C@@H]1O[C@H](CO)[C@@H](O)[C@H]1O` [7-(2-pyridyl)-tubercidin], the Ki (at P1 transporter; in series [1]) was less than 5 µM each time.

For `Nc1ncnc2c1ncn2[C@@H]1O[C@H](CO)[C@@H](O)[C@H]1O` [Adenosine], the Ki on TcrNT2 [2] (setting [11]) is 1560 ± 60 µM. Moreover, the “ΔG° (Gibbs free energy of interaction)” value on TcrNT2 [2] (from cited Ki, ref Campagnaro et al. [30]) is -15.8 kJ/mol. Moreover, the Michaelis constant (Km) in the series on NT1 transport activity is 0.81 ± 0.16 µM.

Take `Nc1ncnc2c1c(-c1ccc(Cl)c(Cl)c1)cn2[C@@H]1O[C@H](CO)[C@@H](O)[C@H]1O` [FH3147, 7-(3,4-dichlorophenyl)-tubercidin]: the EC50 in [3] is 8.41 ± 1.61 µM; in series [4], more than 100 µM; in [5] it was 13.7 ± 1.25 µM; in series [6] (intracellular amastigotes, read-out: EC50 against intracellular T. cruzi amastigotes) it was 0.19 µM. Moreover, in series [4] (EC50 Cas9^ΔNT1 relative to Cas9), the “RF vs. Cas9 (resistance factor)” value was more than 11.8.

Regarding `Nc1ncnc2c1c(Br)cn2[C@@H]1O[C@H](CO)[C@@H](O)[C@H]1O` [TH1003, 7-bromo-tubercidin], the EC50 in [7] was 0.16 ± 0.018 µM. Moreover, the Ki on TcrNT2 [8] was 784 ± 41 µM; at P1 transporter it was less than 5 µM; in series [1] it was less than 5 µM. Besides, the “ΔG° (Gibbs free energy of interaction)” value at TcrNT2 [8] is -19.8 kJ/mol.

Regarding `Nc1ncnc2c1ccn2[C@@H]1O[C@H](CO)[C@@H](O)[C@H]1O` [Tubercidin, tubercidin], the EC50 in series [7] was 0.43 ± 0.15 µM; in series [3] it was 1.02 ± 0.16 µM; in [4] it was 25.7 ± 0.94 µM; in series [5], 0.82 ± 0.13 µM; in series [6] (T. cruzi in vitro, read-out: EC50 against T. cruzi in vitro), 0.34 µM. Besides, the results for the Ki at TcrNT2 [8] and on TcrNT2 [2] (setting [11]) were 852 ± 2 µM and 700 ± 110 µM, respectively. Further, at TcrNT2 [8], the “ΔG° (Gibbs free energy of interaction)” value was -17.5 kJ/mol. At TcrNT2 [8] (change in ΔG° relative to thymidine), the “δ(ΔG°) with respect to ΔG° of thymidine” value is -20.0 kJ/mol.

Consider `Cc1cn([C@H]2C[C@H](O)[C@@H](CO)O2)c(=O)[nH]c1=O` [thymidine], for which, at TcrNT2 [8], the “ΔG° (Gibbs free energy of interaction)” value is -37.5 kJ/mol. In addition, the “rate of [^3H]-thymidine transport” value in series [9] is listed as 0.00004 ± 0.000006 pmol(10^7 cells)^−1 s^−1. The Km on TcrNT2 [2] (TcrNT2 expressed in T. brucei, ref [30], read-out: Km of thymidine uptake by TcrNT2) was ~0.2 µM and 0.223 µM and 0.22 µM; with NT1 transport activity it was 11.2 ± 2.4 µM.

B1: TcrNT2 (Trypanosoma cruzi strain CL Brener) (protein)
chain: MGLGFEFWGEAYSYAAAIMCGLSMLLPINAIFSAPLYIMNYYQYVMHDPNAVAKHKNFWDNALTYYSMLIMLVALIVEPLTLSEAFRRIPIRLRMLSALSMFWLEIIILMSVPAAGSTEAGAISAIVCASFSSALGKSVFESTAYGLFGVFPSRFNTALMGGVGVAGALASILQLIVKASLPQDYSGIRTQSKIYYGLMAGIHGITFIMVVGLHWVPFAQRYINALSGGTSSPASNNPDQAAESETEAASKANEKSAPKATNGGDDNADSGRLVNTNVIFVLKCVYPMLSACGFNFFITLFLFPTIVVSVDPDDYWYGTVAVCIFNVCDVCGRFSPSLKCLWPPRWVVLVGSFSRVVFVPLLILASYHYIPSHAYNYVMMVIFGLSNGYIGALAITLGPLTRNLETSGQRFVAGTMFGISILIGGTIGSALSILVQTLRG
In the case of B1, the Km in series [10] amounted to 0.263 µM; in series [10] ([…]) it was 0.26 ± 0.05 µM.

The record behind these values is article PMC9693223 (Molecules, 2022).
